Here are results for one molecule from patent US12059413B2, “Methods of inhibiting viruses using compositions targeting TSG101-ubiquitin interaction” (The Research Foundation for the State University of New York, priority 2016, dated 2024).

Holding throughout (format): cell-based
Experiment [1] concerns HIV-1 NL4-3. The experiment can be described thus: Viral particle production from 293T cells transfected with pNL4-3, p24 ELISA. The procedure:
FIG. 15A-D. N16 inhibits HIV-1 NL4-3 and Gag VLP production. A) Effect on virus production. Virus particles from N16-treated 293T cells transfected with pNL4-3 as determined by ELISA assay. Top, The compound was added 6 hr prior to DNA transfection and tissue culture media was harvested 24 hr later. Bottom, The compound was added at the indicated concentration 24 hr after DNA transfection and tissue culture media was harvested 24 hr later. Assay values were normalized to that of the DMSO carrier control. B) Effect on virus infectivity. Infectious viral particles per ng p24 as determined by MAGI assay. C) Left, Electron microscopy of particles at cell surface at 24 hr post-N16 addition; Right, Quantitative analysis of budding morphologies. Cells expressing WT- or P7L-NL4-3 were exposed to DMSO carrier or 50 μM N16. Arrows indicate emerging ‘Early’ buds. D) Effects on Gag VLP production. Top, Western blot analysis. Cells treated at the indicated concentration were transfected with DNA encoding Gag-HA. At the end of the treatment period, tissue culture media was removed for VLP isolation. […] Bottom, Quantitative analysis. […]
For production of virus particles, 293T cells were transfected with pNL4-3-ΔEnv and pIIIB Env3-1 plasmids and for virus-like particles (VLP), with pCMV-Gag-HA as previously described (Watanabe et al. (2013)). For specific infectivity, media-associated p24 was determined by ELISA (Immunodiagnostics, Inc.) and equivalent amounts of p24 were used to infect HeLa-CD4+-LTR-3 gal cells for infectivity measurement by the multinuclear activation of a galactosidase indicator (MAGI) assay. […] For cell-associated Gag analysis, cell pellets were lysed with either Triton X-100 or RIPA buffer with complete mini protease inhibitor cocktail (Roche) and analyzed by Western blotting. Protein bands were visualized using an infrared-based imaging system (Odyssey, LI-COR Biotechnology) and band intensities measured using the Li-Cor Odyssey software version 2.1.15. Virus particle release efficiency was calculated [VLP signal intensity/(VLP signal intensity+cell lysate signal intensity)]. […]
In general terms: ELISA stands for enzyme-linked immunosorbent assay.

The test system of experiment [2] is EGFR. As to the kind of experiment: EGF-stimulated EGFR degradation, Western analysis. The following applies: concentrations well above 50 JAM. The procedure:
(§1) FIG. 20A-C. N16 inhibition is virus-specific. A) N16 IC50 for Hela and 293T cells. […] Values were calculated by measuring metabolic activity (WST-1 Assay, Roche Applied Science) after cells were grown for 24 hr in N16. Data points represent the mean of 2 assays, 3 time points each for each cell line. […] Values in the absence or presence of N16 (50 uM) were 12% and 13%, respectively). C) N16 effect on EGF-stimulated EFGR degradation. Cells maintained for 24 hr in media containing DMSO alone or DMSO and N16 were stimulated with EGF ligand for a 90 min period and then assessed for EGFR steady-state level by Western analysis. EGFR levels for unstimulated and stimulated sample pairs are shown. A) n=2; B) n=2; C) n=2.
We investigated the specificity of the inhibitory effect. F15 and N16 impaired Tsg101-co-localization with Gag on the plasma membrane (c.f, FIG. 19) and reduced release of the VLPs assembled by Gag (c.f, FIG. 15). […] Cell metabolic activity was not affected after exposure to N16 for 24 hr; it decreased by less than 10% after exposure to N16 for 48 hr (not shown). Tsg101 localization to the midbody of dividing cells requires its recruitment to that location by centrosomal protein of 55k (CEP55) which binds a site in the Tsg101 Pro-rich domain (aa 154-166) (Lee, H. H., et al. (2008)). […]

Experiment [3] deals with 293T cells. The experiment can be described thus: Metabolic activity, WST-1 assay, 293T cells. The following applies: Homo sapiens, HEK-293T; 293T, 24 hr in N16, WST-1; read-out: IC50 (95% confidence levels), metabolic activity. The procedure: as §1
FIG. 27A-C. Effect of N-Acetyl Cysteine (NAC) on N16-mediated inhibition of VLP production and intracellular Gag accumulation. […] A concentration of 3 mM NAC was therefore used to test the effect of the antioxidative reagent on the N16 inhibitory effect. N16 (0, 12, 25, 50, 75, and 100 uM) was added 8.5 hr prior to transfection with pNL4-3ΔEnv. Cells were harvested 16 hr later. […] C) Quantitative analysis. n=2.
(§2) Cells were grown in 96-well trays for 24 hr with increasing levels of drug, metabolic activity was measured using WST-1colorimetric assay (Roche), and IC50 values were calculated (Prism 6, Graph Pad Software Inc.).

The subject of experiment [4] is Hela cells. The experiment can be described thus: Metabolic activity, WST-1 assay, Hela cells. To be noted: Homo sapiens, 24 hr in N16, WST-1, read-out: IC50 (95% confidence levels), metabolic activity. The procedure: as §1, §2
In general terms: Tetrazolium assays rely on reduction of a dye to a coloured formazan, in cell work by metabolically active cells.

On to `COc1ccc2[nH]c([S+]([O-])Cc3ncc(C)c(OC)c3C)nc2n1` (stereo not drawn) [N16, tenatoprazole], for which the concentration giving a half-maximal response (EC50) (in general, the concentration needed to bring the measured effect to its halfway point) in experiment [1] (Human immunodeficiency virus 1, NL43, HEK-293T, 6 h, N16 added six hours before transfection, 293T cells) was in the range of 25 to 50 µM. Also, the “effect on budding when added 24 hr post-transfection” value in experiment [1] (addition at 24 hr post-transfection, even at higher concentrations) was “little effect”. Further, in experiment [1] (c.f. FIG. 15), the “lowest concentration achieved in tissue culture assays under optimal conditions” value fell in the range of 25 to 50 µM. Moreover, in experiment [2], the EGFR down-regulation function result is “unimpaired”. Moreover, the concentration for half-maximal inhibition (IC50) (usually the concentration that gives 50% inhibition) in experiment [3] was 99.8 to 139 µM; in experiment [4], 156 to 205 µM.
